For 33 molecules, IC50 and inhibition results are on record in US12247019B2 (Centaurus Therapeutics, priority 2018, dated 2025).

This test addresses T1, Des1 (Homo sapiens, UniProt O15121).
T1 sequence (O15121 1-323): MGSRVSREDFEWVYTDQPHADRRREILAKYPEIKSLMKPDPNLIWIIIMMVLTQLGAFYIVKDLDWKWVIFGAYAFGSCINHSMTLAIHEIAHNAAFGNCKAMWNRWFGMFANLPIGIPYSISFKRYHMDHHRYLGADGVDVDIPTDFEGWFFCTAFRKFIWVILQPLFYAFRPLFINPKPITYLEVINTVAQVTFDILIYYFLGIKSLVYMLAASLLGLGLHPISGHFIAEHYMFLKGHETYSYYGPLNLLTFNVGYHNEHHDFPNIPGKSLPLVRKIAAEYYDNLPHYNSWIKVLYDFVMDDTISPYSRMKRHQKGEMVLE
Description: Jurkat T cell measurement of conversion of dihydroceramide to ceramide (Des1 activity, LC-MS/MS of NBD-C6-ceramide). Particulars: Jurkat clone E6-1 cells, 10 μM NBD-C6-dihydroceramide, 3 hours at 37° C.; for IC50: read-out: Des1 IC50; for inhibition at 0.5 µM: 0.5 uM compound, read-out: Des1 % Inhib (0.5 uM). It is filed as cell-based. More on the design: endogenous in cells; host or cells: Jurkat clone E6-1. Here is the method: Jurkat T Cell Measurement of Conversion of Dihydroceramide to Ceramide
Jurkat clone E6-1 cells were grown and then seeded at 10^6 cells/mL in a 96-well plate (400 μL in each well. The cells were administered 100 μL of cell culture media containing 50-μM NBD-C6-dihydroceramide (Des1 substrate), affording a final concentration of substrate of 10 μM. The cells were incubated with substrate at 4° C. for 30 minutes. Following the incubation at 4° C., the cell suspension was centrifuged at 1200 rpm for 3 minutes, and the cell pellet is resuspended in 400 μL of fresh media containing various concentrations of either fenretinide (known Des1 inhibitor control compound) or test article. The final concentrations of control compound and test compounds were tested in a range from 0-10 μM. The cells and compounds were incubated at 37° C. for 3 hours. Following the 3-hour incubation, the plate was centrifuged at 2500 g for 3 minutes at 4° C., followed by collection and transfer of 200 μL of the supernatant to a new 96-well plate with 300 μL of methanol an containing appropriate internal standards for liquid chromatography/tandem mass spectroscopy (LC/MS/MS) analysis (internal standard: 500 nM labetalol and 100 nM alprazolam). The samples were vortexed for 2 minutes followed by centrifugation at 3,220 g for 20 minutes. Following centrifugation, 200 μL of the supernatant was transferred to a new 96-well plate for LC-MS/MS analysis to determine the amount of NBD-C6-ceramide (Des1 product) produced. The assay was typically performed in duplicate. A reduction of at least 30% compared to vehicle control (0 μM test article) is indicative of an active compound, and a reduction of 75% compared to vehicle control is preferred.

Take `O=C(Nc1ccc(O)cn1)N1CCN(c2ccc(Cl)cc2Cl)CC1` [Example 23, 4-(2,4-dichlorophenyl)-N-(5-hydroxypyridin-2-yl)piperazine-1-carboxamide]: the IC50 – broadly, the concentration that inhibits the measured activity by half – amounted to 10 nM. The same measure, in the same setting: the figure for `O=C(Nc1ccc(O)cn1)N1CCN(c2ccc(F)c(F)c2)CC1` [Example 25, 4-(3,4-difluorophenyl)-N-(5-hydroxypyridin-2-yl)piperazine-1-carboxamide] is 9 nM. As to `O=C(Nc1ccc(O)cn1)N1CCN(c2cnn(-c3ccccc3)c2)CC1` [Example 80, N-(5-hydroxypyridin-2-yl)-4-(1-phenyl-1H-pyrazol-4-yl)piperazine-1-carboxamide], the inhibition at 0.5 µM was 56.9%. Still for that read-out and setting: the figure for `O=S(=O)(Nc1ccc(O)cn1)N1CCN(c2ccc(Cl)cc2)CC1` [Example 74, 4-(4-chlorophenyl)-N-(5-hydroxypyridin-2-yl)piperazine-1-sulfonamide] is 72.8%.

For `CC(C)C1CCN(C(=O)Nc2ccc(O)cn2)CC1` [Example 9, N-(5-Hydroxypyridin-2-yl)-4-(propan-2-yl)piperidine-1-carboxamide], the inhibition at 0.5 µM was determined as 93.8% and the 50% inhibitory concentration (IC50) was 17 nM. `O=C(Nc1ccc(O)cn1)N1CCCN(c2ccc(C(F)(F)F)cn2)CC1` [Example 86, N-(5-hydroxypyridin-2-yl)-4-[5-(trifluoromethyl)pyridin-2-yl]-1,4-diazepane-1-carboxamide]: the inhibition at 0.5 µM is 84.6% and the IC50 turned out to be 78 nM. On to `CC(C)CCCCCS(=O)(=O)Nc1ccc(O)cn1` [Example 70, N-(5-Hydroxypyridin-2-yl)-6-methylheptane-1-sulfonamide], for which the inhibition at 0.5 µM was 83.8% and the IC50 worked out at 110 nM. In the case of `O=S(=O)(Nc1ccc(O)cn1)N1CCN(c2ccc(Cl)cn2)CC1` [Example 73, 4-(5-Chloropyridin-2-yl)-N-(5-hydroxypyridin-2-yl)piperazine-1-sulfonamide], the inhibition at 0.5 µM turned out to be 41.9%. In the case of `O=S(=O)(Nc1ccc(O)cn1)N1CCC(c2ccc(Cl)cc2)CC1` [Example 71, 4-(4-chlorophenyl)-N-(5-hydroxypyridin-2-yl)piperidine-1-sulfonamide], the inhibition at 0.5 µM amounted to 88% and the IC50 was 31 nM.

Take `O=S(=O)(Nc1ccc(O)cn1)C1CCN(c2ccccc2)CC1` [Example 64, N-(5-hydroxypyridin-2-yl)-1-phenylpiperidine-4-sulfonamide]: the inhibition at 0.5 µM came out at 19.2%. Same read-out and setting: the figure for `O=C(Nc1ccc(O)cn1)N1CCCCCC1` [Example 11, N-(5-hydroxypyridin-2-yl)azepane-1-carboxamide] is 38.5%. Regarding `O=C(Nc1ccc(O)cn1)OC1CCN(c2ccc(F)cc2)CC1` [Example 53, 1-(4-fluorophenyl)piperidin-4-yl N-(5-hydroxypyridin-2-yl)carbamate], the inhibition at 0.5 µM was determined as 94.8% and the half-maximal inhibitory concentration (IC50) is 4 nM. For `O=C(Nc1ccc(O)cn1)OC1CCN(c2ccc(Cl)cc2)CC1` [Example 55, 1-(4-chlorophenyl)piperidin-4-yl N-(5-hydroxypyridin-2-yl)carbamate] the same measures were 96.5% and 2 nM. For the molecule `O=C(Nc1ccc(O)cn1)N1CCN(c2ccc(F)cn2)CC1` [Example 24, 4-(5-fluoropyridin-2-yl)-N-(5-hydroxypyridin-2-yl)piperazine-1-carboxamide], the IC50 lay within 64 to 94 nM. In the case of `O=C(Nc1ccc(O)cn1)NC1CCN(c2ccc(F)cc2)CC1` [Example 51, 1-[1-(4-fluorophenyl)piperidin-4-yl]-3-(5-hydroxypyridin-2-yl)urea], the inhibition at 0.5 µM stood at 91.5% and the concentration for half-maximal inhibition (IC50) stood at 92 nM. For `O=C(Nc1ccc(O)cn1)N1CCN(c2cc(C(F)(F)F)ccn2)CC1` [Example 33, N-(5-hydroxypyridin-2-yl)-4-[4-(trifluoromethyl)pyridin-2-yl]piperazine-1-carboxamide] the same measures were 93.1% and 7 nM.

With `O=C(Nc1ccc(O)cn1)NC1CCN(c2ccc(Cl)cc2)CC1` [Example 52, 1-[1-(4-chlorophenyl)piperidin-4-yl]-3-(5-hydroxypyridin-2-yl)urea], the IC50 is 29 nM. On to `O=C(Nc1ccc(O)cn1)O[C@H]1CC[C@H](c2ccccc2)CC1` [Example 43, (1r,4r)-4-Phenylcyclohexyl N-(5-hydroxypyridin-2-yl)carbamate], for which the inhibition at 0.5 µM was 97% and the IC50 came out at 6 nM. On to `N#Cc1ccc(N2CCN(C(=O)Nc3ccc(O)cn3)CC2)cc1` [Example 27, 4-(4-cyanophenyl)-N-(5-hydroxypyridin-2-yl)piperazine-1-carboxamide], for which the IC50 worked out at 11 nM.

`O=C(Nc1ccc(O)cn1)N1CCN(c2ncc(F)cc2F)CC1` [Example 79, 4-(3,5-difluoropyridin-2-yl)-N-(5-hydroxypyridin-2-yl) piperazine-1-carboxamide]: the inhibition at 0.5 µM was 93.8% and the IC50 was 7.6 to 70 nM. In the same order, the values of `O=C(Nc1ccc(O)cn1)OC1CCN(c2ccc(F)cn2)CC1` [Example 56, 1-(5-fluoropyridin-2-yl)piperidin-4-yl N-(5-hydroxypyridin-2-yl)carbamate] are 94.7% and 28 nM. In the same order, the values of `O=C(Nc1ccc(O)cn1)N1CCN(c2cccc(C(F)(F)F)n2)CC1` [Example 36, N-(5-hydroxypyridin-2-yl)-4-[6-(trifluoromethyl)pyridin-2-yl]piperazine-1-carboxamide] are 94.9% and 23 nM. Regarding `O=C(Nc1ccc(O)cn1)N1CCN(c2ccc(F)cc2F)CC1` [Example 13, 4-(2,4-difluorophenyl)-N-(5-hydroxypyridin-2-yl)piperazine-1-carboxamide], the inhibition at 0.5 µM is 93% and the concentration for half-maximal inhibition (IC50) lay within 9 to 33 nM. As to `COc1ccc(N2CCN(C(=O)Nc3ccc(O)cn3)CC2)nc1` [Example 45, N-(5-hydroxypyridin-2-yl)-4-(5-methoxypyridin-2-yl)piperazine-1-carboxamide], the half-inhibitory concentration (IC50) turned out to be 470 nM.

Take `O=C(Nc1ccc(O)cn1)N1CCN(c2ccccn2)CC1` [Example 17, N-(5-hydroxypyridin-2-yl)-4-(pyridin-2-yl) piperazine-1-carboxamide]: the inhibition at 0.5 µM stood at 76.9%. On to `O=C(Nc1ccc(O)cn1)N1CCN(c2cc(F)ccn2)CC1` [Example 78, 4-(4-fluoropyridin-2-yl)-N-(5-hydroxypyridin-2-yl)piperazine-1-carboxamide], for which the inhibition at 0.5 µM came out at 93.4% and the IC50 is 19 to 64 nM. As for `O=C(Nc1ccc(O)cn1)NC1CCN(c2ccccc2)CC1` [Example 32, 3-(5-hydroxypyridin-2-yl)-1-(1-phenylpiperidin-4-yl)urea], the half-inhibitory concentration (IC50) came out at 180 nM. Take `O=C(Nc1ccc(O)cn1)N1CCN(c2cccnc2)CC1` [Example 39, 1-[((5-Hydroxypyridin-2-yl)amino)carbonyl]-4-(pyridin-3-yl)piperazine]: the inhibition at 0.5 µM was found to be 9.11%.

For `O=C(Nc1ccc(O)cn1)N1CCN(c2ccccc2)CC1` [Example 3, N-(5-Hydroxypyridin-2-yl)-4-phenylpiperazine-1-carboxamide], the inhibition at 0.5 µM was 87.9% and the IC50 worked out at 53 nM. As to `O=C(Nc1ccc(O)cn1)N1CCN(Cc2ccc(F)c(F)c2)CC1` [Example 77, 4-[(3,4-difluorophenyl)methyl]-N-(5-hydroxypyridin-2-yl)piperazine-1-carboxamide], the inhibition at 0.5 µM is 91.9% and the IC50 turned out to be 35 nM. For `O=C(Nc1ccc(O)cn1)N1CCN(c2ccccc2F)CC1` [Example 12, 4-(2-fluorophenyl)-N-(5-hydroxypyridin-2-yl)piperazine-1-carboxamide] the same measures were 90.5% and 54 nM. In the case of `Cn1cc(C2CCC(C(=O)Nc3ccc(O)cn3)CC2)cn1` (stereo not drawn) [Example 90, N-(5-hydroxypyridin-2-yl)-4-(1-methyl-1H-pyrazol-4-yl)cyclohexane-1-carboxamide], the inhibition at 0.5 µM came to 39.2%. For the molecule `O=C(Nc1ccc(O)cn1)OC1CCN(c2ccc(C(F)(F)F)cn2)CC1` [Example 60, 1-[5-(trifluoromethyl)pyridin-2-yl]piperidin-4-yl N-(5-hydroxypyridin-2-yl)carbamate], the inhibition at 0.5 µM is 96% and the IC50 was determined as 3 nM.
